In patent US7449202B1, “Compositions and methods for prostate and kidney health and disorders, an herbal preparation” (Integrated Chinese Medicine Holdings, Ltd., priority 2003, dated 2008):

Assay: case report: enlarged prostate with frequent urination
Assay type: in vivo, human
Details: person, prescribed for enlarged prostate
Source text: The 9-herb composition and Incontinence. Person diagnosed with having an enlarged prostate suffered from frequent-urination problems including increased daily frequency and reduced volume. They had the urge to urinate every two hours and the amount was only a few drops. Their symptoms were attributed to old age. […] After a period of time on this regimen, their urinary frequency decreased. The person reports that they only go to the bathroom every four hours instead of every two hours during the day. They are able to urinate what they consider a normal amount of urine in a steady stream as opposed to the dribbling they experienced prior to taking the 9-herb composition. The biggest benefit they experienced, however, is sleeping through the night without having to get up and go to the bathroom. Because they are sleeping better, they have more energy throughout the day.

For `CC(C)(C)NC(=O)[C@H]1CC[C@H]2[C@@H]3CC[C@H]4NC(=O)C=C[C@]4(C)[C@H]3CC[C@]12C` [PROSCAR], the urination problem was “did not alleviate the urination problem”.
